We go through one compound from ChEMBL document CHEMBL1806354 (J Med Chem, 2011).

The IC50 is the point on the concentration scale where inhibition reaches its midpoint.

The test system of data set [1] is Rattus norvegicus. Kind of data set: Antiparkinsonian activity in 6-hydroxydopamine lesioned Sprague-Dawley rat assessed as contralateral rotations at 1.5 mg/kg, ip measured every 5 mins for 6 hrs pretreated with D2 receptor antagonist 2 mg/kg of spiperone for 15 mins before compound challenge. The class given is functional, organism-based.
Data set [2] concerns Rattus norvegicus. Nature of the data set: Agonist activity at 5HT1A receptor in lesioned striatum of rat L-DOPA-induced dyskinesia model assessed as stimulation of 8-OH-DPAT-induced [35S]GTPgammaS binding at 1.5 mg/kg administered qd for 21 days by liquid scintillation counting. Set-up: dose 1.5 mg/kg. It is filed as functional, organism-based.
Data set [3] relates to Rattus norvegicus. Nature of the data set: Antiparkinsonian effect in 6-hydroxydopamine lesioned Sprague-Dawley rat Parkinson's disease model assessed as inhibition of L-DOPA-enhanced FosB expression in striatum at 1.5 mg/kg administered qd for 21 days by Western blot analysis. The class given is functional, organism-based. Set-up: dose 1.5 mg/kg.
In data set [4] the test system is Rattus norvegicus. Kind of data set: Antiparkinsonian effect in 6-hydroxydopamine lesioned Sprague-Dawley rat Parkinson's disease model assessed as induction of FosB expression in striatum at 1.5 mg/kg administered qd for 21 days by Western blot analysis. The class given is functional, organism-based. Also noted: dose 1.5 mg/kg.
Data set [5] deals with T1, 5-hydroxytryptamine receptor 1A (Rattus norvegicus) (UniProt P19327).
T1 sequence (whole entry): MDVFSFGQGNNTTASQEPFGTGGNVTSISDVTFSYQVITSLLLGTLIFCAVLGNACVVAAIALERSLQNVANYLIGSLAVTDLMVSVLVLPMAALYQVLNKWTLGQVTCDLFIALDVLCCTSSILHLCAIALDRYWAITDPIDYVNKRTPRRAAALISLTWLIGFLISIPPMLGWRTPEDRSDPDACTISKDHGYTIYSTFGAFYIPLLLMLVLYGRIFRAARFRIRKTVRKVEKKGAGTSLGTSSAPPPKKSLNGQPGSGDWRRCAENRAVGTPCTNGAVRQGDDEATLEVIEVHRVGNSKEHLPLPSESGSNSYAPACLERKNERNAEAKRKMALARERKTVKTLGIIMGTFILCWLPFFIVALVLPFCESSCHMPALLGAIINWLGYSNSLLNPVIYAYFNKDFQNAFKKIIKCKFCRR
Kind of data set: Effect on 5HT1A receptor-mediated pair pulse ratio in Sprague-Dawley rat median prefrontal cortex at 10 uM by whole-cell voltage clamp assay. The class given is tissue-based.

Data set [6] has as its target T1, 5-hydroxytryptamine receptor 1A (Rattus norvegicus). Nature of the data set: Decrease of 5HT1A receptor-mediated excitatory postsynaptic current amplitude in Sprague-Dawley rat median prefrontal cortex at 10 uM by whole-cell voltage clamp assay in presence of 10 uM of 5HT1A receptor antagonist WAY-100635. It is filed as functional, tissue-based. Also noted: scale not given: the % may be the effect or the level left.

The test system of data set [7] is Rattus norvegicus. Kind of data set: Toxicity in Parkinson's disease rat model of assessed as induction of dyskinesia at 0.5 to 1.5 mg/kg, ip qd for 21 days. To be noted: in vivo, 504 h. Set-up: dose 0.5-1.5 mg/kg, route intraperitoneal. The class given is organism-based.
Data set [8] deals with T2, Alpha-1A adrenergic receptor (Homo sapiens, UniProt P35348).
T2 sequence (P35348 whole entry): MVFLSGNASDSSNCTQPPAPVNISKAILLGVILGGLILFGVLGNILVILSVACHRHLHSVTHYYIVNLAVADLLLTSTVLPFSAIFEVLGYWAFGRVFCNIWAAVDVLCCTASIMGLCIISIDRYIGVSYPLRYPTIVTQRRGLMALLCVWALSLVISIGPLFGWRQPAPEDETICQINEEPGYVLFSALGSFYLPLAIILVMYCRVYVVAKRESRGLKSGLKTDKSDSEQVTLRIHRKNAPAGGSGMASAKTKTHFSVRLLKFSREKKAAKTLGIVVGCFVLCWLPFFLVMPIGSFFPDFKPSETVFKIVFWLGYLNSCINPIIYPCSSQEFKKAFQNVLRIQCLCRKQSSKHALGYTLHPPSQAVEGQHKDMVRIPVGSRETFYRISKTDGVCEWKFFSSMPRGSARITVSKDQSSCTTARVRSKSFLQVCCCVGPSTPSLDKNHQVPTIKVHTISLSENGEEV
Kind of data set: Antagonist activity at adrenergic alpha1A receptor expressed in CHO cells assessed as inhibition of adrenaline-induced intracellular calcium level after 3 to 5 mins by Fluo-4/AM assay. It is filed as functional, cell-based. (A change in cytosolic calcium serves as a functional read-out for many receptors and channels.)

For data set [9], the target named is T3, Alpha-1B adrenergic receptor (Homo sapiens, UniProt P35368).
T3 sequence (P35368 whole entry): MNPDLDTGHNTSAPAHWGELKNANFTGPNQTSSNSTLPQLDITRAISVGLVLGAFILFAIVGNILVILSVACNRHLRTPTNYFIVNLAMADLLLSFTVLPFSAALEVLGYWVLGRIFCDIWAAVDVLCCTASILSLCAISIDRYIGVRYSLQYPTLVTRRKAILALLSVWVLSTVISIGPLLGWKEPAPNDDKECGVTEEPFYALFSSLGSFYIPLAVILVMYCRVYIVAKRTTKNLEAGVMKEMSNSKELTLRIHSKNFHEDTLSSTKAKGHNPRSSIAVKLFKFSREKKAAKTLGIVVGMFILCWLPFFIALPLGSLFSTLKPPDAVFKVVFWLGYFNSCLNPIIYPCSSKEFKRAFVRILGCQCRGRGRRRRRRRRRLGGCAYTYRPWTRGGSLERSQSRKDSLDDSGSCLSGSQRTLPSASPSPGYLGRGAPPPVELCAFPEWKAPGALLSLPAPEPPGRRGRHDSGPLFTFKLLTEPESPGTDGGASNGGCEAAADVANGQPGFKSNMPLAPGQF
Kind of data set: Antagonist activity at adrenergic Alpha-1B receptor expressed in CHO cells assessed as inhibition of adrenaline-induced intracellular calcium after 3 to 5 mins by Fluo-4/AM assay. The class given is functional, cell-based.

Each structure is given as a SMILES string. Activity calls are given as the source filed them. The calls are words filed in the database; no cut-off is given here.

`CCCN1CCc2cccc3c2[C@H]1Cc1cccc(OC(=O)CCCCC2CCSS2)c1-3` (some centres undefined): the outcome in data set [1] and in [4] was inactive. Besides, the result in [2] and in [3] was Active. Further, the results for the Activity in data set [5], in [6] and in data set [7] were 114%, 99.4% and “Non-toxic”, respectively. Moreover, the 50% inhibitory concentration (IC50) in data set [8] and in data set [9] was greater than 10 µM each time.
